Consider five compounds from US5807880A, “Azole derivative and pharmaceutical composition thereof” (Yamanouchi Pharmaceutical Co., Ltd., priority 1993, dated 1998).

Where a name gives a salt, the structure may show the parent alone.

Assay [1] deals with T1, rat steroid 17-20 lyase (Rattus norvegicus, UniProt P11715).
T1 construct: A testis was excised from a ten-week-old male Wistar rat, homogenized and then centrifuged to obtain microsomes; from tissue; host or cells: testicular microsomes of ten-week-old male Wistar rats
T1 sequence (P11715 1-507): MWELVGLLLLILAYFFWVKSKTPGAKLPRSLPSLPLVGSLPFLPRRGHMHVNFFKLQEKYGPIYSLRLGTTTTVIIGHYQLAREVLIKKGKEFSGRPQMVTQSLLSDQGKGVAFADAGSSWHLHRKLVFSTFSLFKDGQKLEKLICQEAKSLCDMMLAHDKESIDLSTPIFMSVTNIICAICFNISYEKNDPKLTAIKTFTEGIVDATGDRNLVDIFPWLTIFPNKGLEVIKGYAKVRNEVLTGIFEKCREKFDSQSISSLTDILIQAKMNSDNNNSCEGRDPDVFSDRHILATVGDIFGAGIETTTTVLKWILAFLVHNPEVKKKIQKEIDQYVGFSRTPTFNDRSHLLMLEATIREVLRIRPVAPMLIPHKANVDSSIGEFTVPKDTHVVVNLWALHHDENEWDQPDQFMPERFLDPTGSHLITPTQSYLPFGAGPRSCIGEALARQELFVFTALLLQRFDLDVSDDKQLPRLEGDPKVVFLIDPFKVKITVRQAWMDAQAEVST
The experiment in a line: Measurement of rat steroid 17-20 lyase inhibiting activity (rat testicular microsomes). Format: biochemical, rat (male Wistar). As to conditions: 1 μM [1,2-3H]-17α-hydroxyprogesterone, NADPH, pH 7.4, 37° C., 60 minutes, read-out: Concentration of drug to inhibit 50% of steroid 17-20 lyase activity (IC50). The protocol: (1) Measurement of rat steroid 17-20 lyase inhibiting activity
Carried out in accordance with the procedure described in J. Steroid Biochem., Vol.33, No.6, 1191-1195 (1989).
A testis was excised from a ten-week-old male Wistar rat, homogenized and then centrifuged to obtain microsomes. A 50 μg portion of the microsomal protein, 1 μM of [1,2-^3 H]-17α-hydroxyprogesterone (5.55×10^5 dpm) and a test compound were dissolved in 100 μl of 50 mM phosphate buffer (pH 7.4), and the solution was mixed with NADPH solution and incubated at 37° C. for 60 minutes. This was mixed with 400 μl of a mixed solvent of methanol and tetrahydrofuran (2:3) and subjected to centrifugation, and radioactivities of the substrate and products (androstenedione and testosterone) in the resulting supernatant fluid were measured using a high performance liquid chromatography (HPLC) equipped with a radioactive isotope detector to examine activity of the test compound to inhibit steroid 17-20 lyase.
The steroid 17-20 lyase inhibiting activity in rat testicular microsomes was calculated as IC50 value by the method described in the above test method (1), with the results shown in Table 1.

The subject of assay [2] is testosterone synthesis. The experiment in a line: Measurement of in vivo rat testosterone synthesis inhibiting activity (LH-RH stimulated). Conditions: 1 mg/kg, oral, fasted male Wistar rats; LH-RH 60 ng/rat i.m. 1 h after drug, blood 1 h thereafter; serum testosterone. The protocol:
(2) Measurement of in vivo rat testosterone synthesis inhibiting activity
Carried out in accordance with the procedure described in J. Steroid Biochem., Vol.32, No.6, 781-788 (1989).
Each test drug was orally administered to ten-week-old male Wistar rats under fasting. One hour after the drug administration, LH-RH (60 ng/rat) was administered by intramuscular injection to accelerate testosterone synthesis. One hour thereafter, blood was collected by decapitation, and concentration of testosterone in the thus obtained serum was measured by a radioactive isotope assay to calculate testosterone synthesis inhibiting activity.
The in vivo activity to inhibit synthesis of testosterone in rats measured by the above test method (2) was expressed as a testosterone synthesis inhibition ratio (%) to the control group when each test compound or a control compound was administered in a dose of 1 or 10 mg/kg (Table 2).

`CC(c1ccc2c(c1)Cc1ccccc1-2)n1ccnc1` (stereo not shown) [Example 2, 1-[1-(9H-fluoren-2-yl)ethyl]-1H-imidazole hydrochloride]: the IC50 in assay [1] amounted to 4 nM. Further, in assay [2], the “Testosterone synthesis inhibition ratio (to the control group)” value (from here on “Testosterone synthesis inhibition ratio”) was found to be 86.3%.
For `CC(C)(c1ccc2c(c1)Cc1ccccc1-2)n1ccnc1` [Example 4, 1-[1-(9H-fluoren-2-yl)-1-methylethyl]-1H-imidazole], the IC50 in assay [1] amounted to 5 nM.
On to `c1ccc2c(c1)Cc1cc(Cn3ccnc3)ccc1-2` [Example 7, 1-[(9H-Fluoren-2-yl)methyl]-1H-imidazole], for which the “Testosterone synthesis inhibition ratio” value in assay [2] amounted to 78.4%.
In the case of `CC(c1ccc2c(c1)sc1ccccc12)n1ccnc1` (stereo not shown) [Example 8, 1-[1-(Dibenzothiophen-3-yl)ethyl]-1H-imidazole], the IC50 in assay [1] worked out at 5.7 nM. Also, the “Testosterone synthesis inhibition ratio” value in assay [2] is 73.0%.
As to `CC(c1ccc2c(c1)Nc1ccccc1S2)n1ccnc1` (stereo not shown) [Example 10, 2-[1-(1H-Imidazo1-1-yl)ethyl]phenothiazine monooxalate], in assay [1], the IC50 stood at 6.9 nM.
